In patent publication US11241427B2, “Small molecule modulators of NR2F6 activity” (Regen Biopharma, Inc., priority 2015, dated 2022):
Read-outs that look alike come from different tables or passages of the source.

Biological target: T1, NR2F6 (ligand binding domain, amino acids 163-404) (Homo sapiens, UniProt P10588)
T1 construct: HIS (N, cleaved yes); FLAG (N, cleaved yes); TEV site (N, cleaved yes); made in house; host or cells: E. coli BL21 (DE3)
T1 sequence (P10588 163-404): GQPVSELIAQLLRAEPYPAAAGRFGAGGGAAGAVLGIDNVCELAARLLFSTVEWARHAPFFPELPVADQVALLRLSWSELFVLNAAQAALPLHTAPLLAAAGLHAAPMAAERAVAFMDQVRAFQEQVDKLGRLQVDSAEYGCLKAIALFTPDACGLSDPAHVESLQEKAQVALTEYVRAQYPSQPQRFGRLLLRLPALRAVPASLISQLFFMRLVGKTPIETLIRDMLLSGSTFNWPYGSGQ
Assay: Thermoshift analysis (TSA) of compound binding to NR2F6
Conditions: for Tm: NR2F6 alone Tm 48 °C
Experimental: The binding interaction between target protein NR2F6 and 139 compounds selected from an in silico screen was assessed using thermoshift analysis (TSA). Thermoshift is a physical technique used to determine the melting temperature of a protein. The interaction of the ligand to the folded state of the protein shifts the melting temperature. In the experimental system used, the NR2F6 protein is mixed with the ligand and the fluorescent dye SYPRO Orange®. The fluorescence is monitored over temperature gradient between 20 and 95° C. with 0.5° C. increment. The dye binds to the hydrophobic regions of molten globules and denatured proteins resulting in an increase of fluorescence. A plot of the fluorescence is obtained and used to determine the melting temperature in absence and presence of ligand.
The ligand binding domain of NR2F6 (amino acids 163-404) was cloned for soluble expression in E. coli with an N-terminal HIS-FLAG-TEV-tag. Expression was performed in BL21 (DE3) cells. In brief, a 12L E. coli culture was induced with IPTG in logarithmic phase and further incubated over night at 18° C. Cells were harvested via centrifugation, washed with buffer and stored at […] until purification.
The purification procedure performed consists of HIS affinity chromatography, tag cleavage, negative affinity chromatography, size exclusion chromatography and ion exchange chromatography.
Thermoshift analysis was performed on 139 Compounds that were stored as powder in DMSO stocks. A reaction volume of 25 μl was used, with reaction temperatures being increased in 0.5 increments from 20-95° C. in 96 well, PCR plates (Hard-Shell®, HSP-9655). The control was NR2F6 protein alone in 1% DMSO. For performing the reaction, a reaction buffer comprising of the following was utilized: 20 mM HEPES pH 6.85, 150 mM NaCl, 10% Glycerin and 0.5 mM TCEP.
The following pipetting sequence was used: 1) Add appropriate volume of target enzyme in reaction buffer; 2) Add appropriate volume of dye SYPRO Orange® in reaction buffer; 3) Add inhibitor in 100% DMSO (1% final DMSO conc); 4) Measure fluorescence
Fluorescence was quantified using a CFX Connect™ Real-Time PCR Detection System (BioRad)
An increase in melting temperature is indicative for compound binding.

[1] = Table 1.1, 100 μM compound, 0.5 mg/ml NR2F6, 1% DMSO
[2] = Table 1.1, 100 μM compound, shift versus NR2F6 alone (Tm 48 °C)
[3] = Table 1.1, 100 μM compound, shift versus NR2F6 alone (Tm 48 °C), read-out: delta Tm

Row | Compound | Tm [1] [°C] | delta Tm [2] [°C] | ΔTm at 100 µM [°C] | Tm (Table 1.2, 100 μM compound) [°C] | ΔTm at 100 µM [3] [°C]
1 | C=C1/C(=C\C=C2/CCC[C@]3(C)[C@@H]([C@H](C)CCCC(C)(C)O)CC[C@@H]23)C[C@@H](O)C[C@@H]1O [Cpd 83, 1a,25-Dihydroxyvitamin D3] | 46.5 | −1.5 |  |  | 
2 | CCCCCC=CCC=CCC=CCC=CCCCC(=O)O [Cpd 84, 5,8,11,14-Eicosatetranoic acid] | 46.5 | −1.5 |  |  | 
3 | Clc1ccc(-c2nc3sccn3c2/C=N/OCc2ccc(Cl)c(Cl)c2)cc1 [Cpd 85, CITCO] | 48 | 0 |  |  | 
4 | N[C@@H](Cc1cc(I)c(O)c(I)c1)C(=O)O [Cpd 86, 3,5-Diiodo-L-tyrosine] | 50 |  | 2 | 50 | 
5 | CO[C@H]1/C=C/O[C@@]2(C)Oc3c(C)c(O)c4c(O)c(c(/C=N/N5CCN(C)CC5)c(O)c4c3C2=O)NC(=O)/C(C)=C\C=C\[C@H](C)[C@H](O)[C@@H](C)[C@@H](O)[C@@H](C)[C@H](OC(C)=O)[C@@H]1C [Cpd 87, Rifampicin] | 49.5 |  |  | 49.5 | 1.5
6 | CC(C)=CCC/C(C)=C/CC/C(C)=C/CC/C(C)=C/CO [Cpd 88, Geranylgeranoil] | 47.5 | −0.5 |  |  | 
7 | CC/C=C\C/C=C\C/C=C\C/C=C\C/C=C\C/C=C\CCC(=O)O [Cpd 89, Docosa-4Z,7Z,10Z,13Z,16Z,19Z-hexaenoic acid] | 47.5 |  |  |  | -0.5
8 | COc1ccc(NS(=O)(=O)c2cccc(NC(=O)c3ccc(Cl)nc3)c2)cc1 [Cpd 116] | 47.5 | −0.5 |  |  | 
9 | CCN(CC)S(=O)(=O)c1ccc(/C=C/C(=O)Nc2ccc(Br)cc2F)cc1 [Cpd 117] | 48.5 | 0.5 |  |  | 
10 | Clc1ccc(OCCN2CCN(c3ncnc4sccc34)CC2)cc1 [Cpd 120] | 46.5 | −1.5 |  |  | 
11 | CC(=O)c1c(C)[nH]c(C(=O)OCCCCN2C(=O)c3ccccc3C2=O)c1C [Cpd 121] | 48 | 0 |  |  | 
12 | Cc1cc(-n2c(C)cc(C(=O)CSc3ncnc4ccccc34)c2C)no1 [Cpd 122] | 47.5 | −0.5 |  |  | 
13 | CCN(CC)S(=O)(=O)c1cccc(NC(=O)COC(=O)c2[nH]c(C)c(C(C)=O)c2C)c1 [Cpd 123] | 47.5 | −0.5 |  |  | 
14 | CC(=O)c1c(C)[nH]c(C(=O)COc2cc(C)ccc2C(C)C)c1C [Cpd 125] | 47.5 | −0.5 |  |  | 
15 | COc1ccc(CNc2ncnc3ccccc23)cc1 [Cpd 126] | 47.5 | −0.5 |  |  | 
16 | Cc1nn(C)c(C)c1NC(=O)COc1ccc(Cl)cc1Br [Cpd 127] | 47.5 | −0.5 |  |  | 
17 | N#CCSc1nnc(-c2sc3ccccc3c2Cl)o1 [Cpd 128] | 48 | 0 |  |  | 
18 | COc1ccc(CN(C)c2ccc(S(=O)(=O)N3CCN(C)CC3)cc2[N+](=O)[O-])cc1OC [Cpd 129] | 47.5 | −0.5 |  |  | 
19 | CCCCCCn1c(NCC)nc2c1c(=O)n(C)c(=O)n2C [Cpd 130] | 47.5 | −0.5 |  |  | 
20 | CC(=O)c1ccc(N2CCN(C(=S)Nc3ccc(Oc4ccccc4)cc3)CC2)cc1 [Cpd 131] | 47.5 | −0.5 |  |  | 
21 | O=C(Nc1ccncc1)c1ccc(Cl)c(S(=O)(=O)N2CCc3ccccc32)c1 [Cpd 132] | 47.5 | −0.5 |  |  | 
22 | CCN(CC)S(=O)(=O)c1cccc(NC(=O)CNc2cccc(S(=O)(=O)N3CCCC3)c2)c1 [Cpd 133] | 49 |  |  | 49 | 1
23 | c1ccc(CNc2ncnc3ccccc23)cc1 [Cpd 134] | 47.5 | −0.5 |  |  | 
24 | Cc1ccc(F)cc1NC(=O)Cc1nn(C)c(=O)c2ccccc12 [Cpd 135] | 47.5 | −0.5 |  |  | 
25 | S=C(NCCc1ccccc1)Nc1cccc2cnccc12 [Cpd 136] | 47.5 | −0.5 |  |  | 
26 | CCN=c1scc(-c2ccc3c(c2)NC(=O)CO3)n1N=C1CCCC1 [Cpd 137] | 48 | 0 |  |  | 
27 | COc1ccc(/C=N/OCC(=O)NC(c2ccccc2)c2ccccc2)cc1OC [Cpd 138] | 46 | −2 |  |  | 
28 | CC(=O)c1c(C)[nH]c(C(=O)OCC(=O)Nc2ccc(Cl)cc2[N+](=O)[O-])c1C [Cpd 139] | 48.5 | 0.5 |  |  | 
